Data: PubChem BioAssay (NCI)
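Tested at 5 concentrations; 48 h exposure; 96-well plates; endpoints linearly interpolated, else capped at highest concentration. GI50 marks 50% less growth. TGI is the concentration that stops growth completely.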

Tests used:
Assay in all cases: NCI-60 cell line screen, 48 h
[1] = test system: PC-3 prostate
[2] = test system: SNB-19 CNS
[3] = test system: SNB-75 CNS
[4] = test system: DU-145 prostate
[5] = test system: TK-10 renal
[6] = test system: HOP-62 NSCLC
[7] = test system: NCI-H23 lung
[8] = test system: M14 melanoma
[9] = test system: OVCAR-3 ovarian
[10] = test system: HL-60(TB) leukemia
[11] = test system: ACHN renal
[12] = test system: K-562 leukemia
[13] = test system: COLO 205 colon
[14] = test system: OVCAR-8 ovarian
[15] = test system: SK-MEL-2 melanoma
[16] = test system: HCT-116 colon
[17] = test system: CCRF-CEM leukemia
[18] = test system: SF-268 CNS
[19] = test system: SR leukemia
[20] = test system: SN12C renal
[21] = test system: NCI/ADR-RES ovarian
[22] = test system: SK-MEL-5 melanoma
[23] = test system: IGROV1 ovarian
[24] = test system: A549 NSCLC
[25] = test system: MDA-MB-435
[26] = test system: EKVX NSCLC
[27] = test system: NCI-H460 lung
[28] = test system: A498 renal
[29] = test system: BT-549 breast
[30] = test system: HT29 colon
[31] = test system: UO-31 renal
[32] = test system: MDA-MB-231 breast
[33] = test system: OVCAR-4 ovarian
[34] = test system: HS 578T breast
[35] = test system: LOX IMVI melanoma
[36] = test system: SF-295 CNS
[37] = test system: HCC-2998 colon
[38] = test system: RPMI-8226 leukemia
[39] = test system: T-47D breast
[40] = test system: MCF7 breast
[41] = test system: RXF 393 renal
[42] = test system: SK-MEL-28 melanoma
[43] = test system: KM12 colon
[44] = test system: MALME-3M melanoma
[45] = test system: U251 CNS
[46] = test system: MOLT-4 leukemia
[47] = test system: SK-OV-3 ovarian
[48] = test system: HCT-15 colon
[49] = test system: SF-539 CNS
[50] = test system: SW-620 colon
[51] = test system: OVCAR-5 ovarian
[52] = test system: UACC-257 melanoma
[53] = test system: NCI-H522 lung
[54] = test system: CAKI-1 renal
[55] = test system: 786-0 renal

## O=c1[nH]c2ccccc2nc1-c1c[nH]c2ccccc12
[1]
  GI50: > 100 µM
  TGI: > 100 µM
[2]
  GI50: > 100 µM
  TGI: > 100 µM
[3]
  GI50: 2.93 µM
  TGI: > 100 µM
[4]
  GI50: > 100 µM
  TGI: > 100 µM
[5]
  GI50: > 100 µM
  TGI: > 100 µM
[6]
  GI50: > 100 µM
  TGI: > 100 µM
[7]
  GI50: > 100 µM
  TGI: > 100 µM
[8]
  GI50: > 100 µM
  TGI: > 100 µM
[9]
  GI50: 9.57 µM
  TGI: > 100 µM
[10]
  GI50: > 100 µM
  TGI: > 100 µM
[11]
  GI50: > 100 µM
  TGI: > 100 µM
[12]
  GI50: > 100 µM
  TGI: > 100 µM
[13]
  GI50: > 100 µM
  TGI: > 100 µM
[14]
  GI50: > 100 µM
  TGI: > 100 µM
[15]
  GI50: > 100 µM
  TGI: > 100 µM
[16]
  GI50: > 100 µM
  TGI: > 100 µM
[17]
  GI50: > 100 µM
  TGI: > 100 µM
[18]
  GI50: > 100 µM
  TGI: > 100 µM
[19]
  GI50: > 100 µM
  TGI: > 100 µM
[20]
  GI50: > 100 µM
  TGI: > 100 µM
[21]
  GI50: > 100 µM
  TGI: > 100 µM
[22]
  GI50: > 100 µM
  TGI: > 100 µM
[23]
  GI50: 1.26 µM
  TGI: > 100 µM
[24]
  GI50: > 100 µM
  TGI: > 100 µM
[25]
  GI50: > 100 µM
  TGI: > 100 µM
[26]
  GI50: 18.8 µM
  TGI: > 100 µM
[27]
  GI50: > 100 µM
  TGI: > 100 µM
[28]
  GI50: 7.4 µM
  TGI: > 100 µM
[29]
  GI50: > 100 µM
  TGI: > 100 µM
[30]
  GI50: > 100 µM
  TGI: > 100 µM
[31]
  GI50: 0.725 µM
  TGI: > 100 µM
[32]
  GI50: 7.38 µM
  TGI: > 100 µM
[33]
  GI50: > 100 µM
  TGI: > 100 µM
[34]
  GI50: 6.83 µM
  TGI: > 100 µM
[35]
  GI50: > 100 µM
  TGI: > 100 µM
[36]
  GI50: 68.2 µM
  TGI: > 100 µM
[37]
  GI50: > 100 µM
  TGI: > 100 µM
[38]
  GI50: > 100 µM
  TGI: > 100 µM
[39]
  GI50: 8.63 µM
  TGI: > 100 µM
[40]
  GI50: 93.4 µM
  TGI: > 100 µM
[41]
  GI50: 7.41 µM
  TGI: > 100 µM
[42]
  GI50: > 100 µM
  TGI: > 100 µM
[43]
  GI50: 1.39 µM
  TGI: > 100 µM
[44]
  GI50: 39.8 µM
  TGI: > 100 µM
[45]
  GI50: > 100 µM
  TGI: > 100 µM
[46]
  GI50: > 100 µM
  TGI: > 100 µM
[47]
  GI50: > 100 µM
  TGI: > 100 µM
[48]
  GI50: > 100 µM
  TGI: > 100 µM
[49]
  GI50: > 100 µM
  TGI: > 100 µM
[50]
  GI50: > 100 µM
  TGI: > 100 µM
[51]
  GI50: > 100 µM
  TGI: > 100 µM
[52]
  GI50: > 100 µM
  TGI: > 100 µM
[53]
  GI50: > 100 µM
  TGI: > 100 µM
[54]
  GI50: 2.49 µM
  TGI: > 100 µM
[55]
  GI50: > 100 µM
  TGI: > 100 µM
